Like-named read-outs stand apart in the source and are kept apart here.
Key:
[1] = tested on: HeLa cells; experiment: cells; settings: for HeLa Cells Alamar Blue: Supplementary Table 1; for viability at 500 µM: Homo sapiens, HeLa, 65 h
In short: (§1)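 HeLa and A549 cells grown in DMEM with 10% FCS and 2 mM L-Glutamine were seeded at 2 × 10^4 cells/well. They were exposed to compounds for ~65 hours, then Alamar Blue was added for a further 5 hours to measure viability.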

[2] = tested on: A549 cells; experiment: Cytotoxicity against A549 cells, Alamar Blue; type: cell-based; settings: Supplementary Table 1, compound 0.5 mM, percentage of controls (n=1); for viability at 500 µM: Homo sapiens, A549, 65 h
In short: as §1

[3] = compound 0.5 mM, percentage of controls, mean ± SD (n=3) or SE (n=2)
[4] = read-out: HeLa Cells Alamar Blue
[5] = read-out: HeLa Cells Alamar Blue, Supplementary Table 1, compound 0.5 mM, percentage of controls, mean ± SD (n=3) or SE (n=2)

`Cn1nc(-c2ccccc2)cc1CO` [compound 524, (1‐methyl‐3‐phenyl‐1H‐pyrazol‐5‐yl)methanol] was tested, and the “HeLa Cells Alamar Blue” value [1, 3] was 88.2 ± 10.3 percentage of controls and the “A549 Cells Alamar Blue” value [2] was 60.7 percentage of controls.
`Cn1nc(CO)cc1-c1ccccc1` [compound 525, (1‐methyl‐5‐phenyl‐1H‐pyrazol‐3‐yl)methanol] was tested, and the “HeLa Cells Alamar Blue” value [1, 3] was 64.8 ± 9.8 percentage of controls and the “A549 Cells Alamar Blue” value [2] was 64.6 percentage of controls.
Work on `OCc1nccn1Cc1ccccc1` [compound 526, (1‐benzyl‐1H‐imidazol‐2‐yl)methanol] yielded a viability at 500 µM [1, 4] of 81 ± 13.3% and a viability at 500 µM [2] of 58%.
In the case of `OCc1cccc(Cn2ccnc2)c1` [compound 527, [3‐(1H‐imidazol‐1‐ylmethyl)phenyl]methanol], the “HeLa Cells Alamar Blue” value [1, 3] is reported as 80.7 ± 17.6 percentage of controls and the “A549 Cells Alamar Blue” value [2] is reported as 69.2 percentage of controls.
For `OCc1ccc(Cn2ccnc2)cc1` [compound 528, [4‐(1H‐imidazol‐1‐ylmethyl)phenyl]methanol], the “HeLa Cells Alamar Blue” value [1, 3] was 90.8 ± 4.5 percentage of controls and the “A549 Cells Alamar Blue” value [2] was 81.2 percentage of controls.
In the case of `OCc1ccc(Cn2cccn2)cc1` [compound 529, [4‐(1H‐pyrazol‐1‐ylmethyl)phenyl]methanol], the “HeLa Cells Alamar Blue” value [1, 3] is reported as 85 ± 5.2 percentage of controls and the “A549 Cells Alamar Blue” value [2] is reported as 94 percentage of controls.
With `Cn1ncc(CO)c1-c1ccccc1` [compound 530, (1‐methyl‐5‐phenyl‐1H‐pyrazol‐4‐yl)methanol] the “HeLa Cells Alamar Blue” value [1, 3] was 87.4 ± 6.2 percentage of controls and the “A549 Cells Alamar Blue” value [2] was 109.5 percentage of controls.
Compound `Cc1onc(-c2ccccc2)c1CO` [compound 534, (5‐methyl‐3‐phenyl‐4‐isoxazolyl)methanol] has a viability at 500 µM [1, 4] of 78.8 ± 15.6% and a viability at 500 µM [2] of 62.9%.
`O=C(O)c1ccc(C(F)(F)F)cc1` [compound 539, 4‐(trifluoromethyl)benzoic acid] showed a viability at 500 µM [1, 4] of 92.4 ± 8.2% and a viability at 500 µM [2] of 104%.
Work on `OCc1ccc(Oc2ccccc2)o1` [compound 540, (5‐phenoxy‐2‐furyl)methanol] yielded a viability at 500 µM [1, 4] of 13.7 ± 6.5% and a viability at 500 µM [2] of 57.7%.
`CN(C)CCOc1ccc(C#N)cc1` [compound 542, 4‐[2‐(dimethylamino)ethoxy]benzonitrile] gave a viability at 500 µM [1, 4] of 91.6 ± 9.5% and a viability at 500 µM [2] of 69.7%.
`OCc1ccccc1-c1cccs1` [compound 543, (2‐thien‐2‐ylphenyl)methanol] showed a viability at 500 µM [1, 4] of 73.9 ± 3.7% and a viability at 500 µM [2] of 56.5%.
`OCc1ccc(-c2ccsc2)cc1` [compound 545, (4‐thien‐3‐ylphenyl)methanol] showed a viability at 500 µM [1, 4] of 84.3 ± 13.2% and a viability at 500 µM [2] of 87.2%.
In the case of `Cc1nc(-c2cccc(N)c2)cs1` [compound 546, 3‐(2‐methyl‐1,3‐thiazol‐4‐yl)aniline], the viability at 500 µM [1, 4] is reported as 68.5 ± 8.2% and the viability at 500 µM [2] is reported as 61.9%.
For `NC1CCN(Cc2ccccc2)CC1` [compound 548, 1‐benzylpiperidin‐4‐amine], the viability at 500 µM [1, 4] was 39.5 ± 10% and the viability at 500 µM [2] was 89.3%.
Work on `Cc1cccc(N2CCNCC2)c1C` [compound 549, 1‐(2,3‐dimethylphenyl)piperazine] yielded a viability at 500 µM [1, 4] of 10.1 ± 5.7% and a viability at 500 µM [2] of 13.6%.
For `COC(=O)c1scc(C)c1Cl` [compound 551, methyl 3‐chloro‐4‐methylthiophene‐2‐carboxylate], the “HeLa Cells Alamar Blue” value [1, 3] was 90.7 ± 10.3 percentage of controls and the “A549 Cells Alamar Blue” value [2] was 104.9 percentage of controls.
Compound `OCc1csc(-c2ccccc2)n1` [compound 557, (2‐phenyl‐1,3‐thiazol‐4‐yl)methanol] has a viability at 500 µM [1, 4] of 58.1 ± 13.4% and a viability at 500 µM [2] of 78.4%.
`COc1ccccc1C1CCNCC1` [compound 560, 4‐(2‐methoxyphenyl)piperidine] showed a viability at 500 µM [1, 4] of 20.2 ± 2.8% and a viability at 500 µM [2] of 63.7%.
For `CN1CCN(c2ccc(N)cc2)CC1` [compound 562, 4‐(4‐methylpiperazino)aniline], the viability at 500 µM [1, 4] was 8.2 ± 6.5% and the viability at 500 µM [2] was 17.5%.
With `Nc1nc(-c2ccc(O)cc2)cs1` [compound 565, 4‐(2‐amino‐1,3‐thiazol‐4‐yl)phenol] the viability at 500 µM [1, 5] was 57.7 ± 17.7% and the viability at 500 µM [2] was 61.6%.
`NS(=O)(=O)c1ccc(F)cc1F` [compound 576, 2,4‐difluorobenzenesulfonamide] was tested, and the viability at 500 µM [1, 4] was 10.7 ± 9.3% and the viability at 500 µM [2] was 12.9%.
Work on `Oc1ccc(SC(F)(F)F)cc1` [compound 584, 4‐[(trifluoromethyl)thio]phenol] yielded a viability at 500 µM [1, 4] of 97.5 ± 15.9% and a viability at 500 µM [2] of 68.4%.
Work on `CCOC(=O)CCc1ccc(O)cc1` [compound 585, ethyl 3‐(4‐hydroxyphenyl)propanoate] yielded a viability at 500 µM [1, 4] of 63.1 ± 3.9% and a viability at 500 µM [2] of 61.7%.
`Cn1nc(CO)cc1-c1cccs1` [compound 586, (1‐methyl‐5‐thien‐2‐yl‐1H‐pyrazol‐3‐yl)methanol] was tested, and the “HeLa Cells Alamar Blue” value [1, 3] was 82 ± 15.2 percentage of controls and the “A549 Cells Alamar Blue” value [2] was 63.4 percentage of controls.
For `O=C(O)CC12CC3CC(CC(C3)C1)C2` [compound 588, 2‐(1‐adamantyl)acetic acid], the viability at 500 µM [1, 4] was 95.4 ± 14.1% and the viability at 500 µM [2] was 85.4%.
In the case of `CC(=O)c1cc2cc(Cl)ccc2o1` [compound 589, 1‐(5‐chlorobenzo[b]furan‐2‐yl)ethan‐1‐one], the “HeLa Cells Alamar Blue” value [1, 3] is reported as 95.8 ± 12.5 percentage of controls and the “A549 Cells Alamar Blue” value [2] is reported as 99.5 percentage of controls.
`OCc1csc2ccc(Cl)cc12` [compound 608, (5‐chloro‐1‐benzothiophen‐3‐yl)methanol] showed a viability at 500 µM [1, 4] of 78.3 ± 1% and a viability at 500 µM [2] of 63.8%.
Work on `O=C(O)c1ccc(-c2cccnc2)cc1` [compound 612, 4‐pyrid‐3‐ylbenzoic acid] yielded a viability at 500 µM [1, 5] of 77.2 ± 5.7% and a viability at 500 µM [2] of 74.2%.
`Nc1cccc(COc2ccccc2)c1` [compound 616, 3‐(phenoxymethyl)aniline] showed a viability at 500 µM [1, 4] of 80.5 ± 17.9% and a viability at 500 µM [2] of 57.5%.
Compound `OCc1ccccc1Oc1ccccc1` [compound 621, (2‐phenoxyphenyl)methanol] has a viability at 500 µM [1, 4] of 74.9 ± 14.8% and a viability at 500 µM [2] of 73.7%.
For `OCc1ccc(Oc2ccccc2)cc1` [compound 622, (4‐phenoxyphenyl)methanol], the viability at 500 µM [1, 4] was 78.3 ± 15.4% and the viability at 500 µM [2] was 70.7%.
In the case of `Cc1nc(-c2ccccc2)ncc1CO` [compound 623, (4‐methyl‐2‐phenyl‐5‐pyrimidinyl)methanol], the “HeLa Cells Alamar Blue” value [1, 3] is reported as 66.5 ± 11.6 percentage of controls and the “A549 Cells Alamar Blue” value [2] is reported as 85.4 percentage of controls.
Compound `Nc1ncccc1OCc1ccccc1` [compound 624, 3‐(benzyloxy)pyridin‐2‐amine] has a viability at 500 µM [1, 5] of 72.9 ± 14.8% and a viability at 500 µM [2] of 82.7%.
With `OCc1ccc(Oc2ccccn2)cc1` [compound 629, [4‐(pyrid‐2‐yloxy)phenyl]methanol] the viability at 500 µM [1, 4] was 84.1 ± 9.9% and the viability at 500 µM [2] was 96.1%.
Compound `OCc1cccc(Oc2ccccn2)c1` [compound 630, [3‐(pyrid‐2‐yloxy)phenyl]methanol] has a viability at 500 µM [1, 4] of 80 ± 1% and a viability at 500 µM [2] of 98.3%.
`NC(=S)COc1cccc(Cl)c1` [compound 633, 2‐(3‐chlorophenoxy)ethanethioamide] gave a viability at 500 µM [1, 4] of 46.9 ± 11.1% and a viability at 500 µM [2] of 90.3%.
`Cc1nn(-c2ccccc2)c(C)c1CO` [compound 636, (3,5‐dimethyl‐1‐phenyl‐1H‐pyrazol‐4‐yl)methanol] was tested, and the “HeLa Cells Alamar Blue” value [1, 3] was 73 ± 13.4 percentage of controls and the “A549 Cells Alamar Blue” value [2] was 94.9 percentage of controls.
Compound `N#CC(c1ccccc1)N1CCOCC1` (centres unmarked) [compound 638, 2‐morpholino‐2‐phenylacetonitrile] has a viability at 500 µM [1, 4] of 80.5 ± 8.2% and a viability at 500 µM [2] of 89.8%.
For `c1ccc(-c2cn3c(n2)SCC3)cc1` [compound 639, 6‐phenyl‐2,3‐dihydroimidazo[2,1‐b][1,3]thiazole], the “HeLa Cells Alamar Blue” value [1, 3] was 61 ± 9.8 percentage of controls and the “A549 Cells Alamar Blue” value [2] was 109.1 percentage of controls.
`O=C(O)CSc1ccc(Cl)cc1` [compound 641, 2‐[(4‐chlorophenyl)thio]acetic acid] was tested, and the viability at 500 µM [1, 4] was 105 ± 3.7% and the viability at 500 µM [2] was 119%.
With `Cc1oc(-c2ccccc2)nc1CCO` [compound 643, 2‐(5‐methyl‐2‐phenyl‐1,3‐oxazol‐4‐yl)ethan‐1‐ol] the “HeLa Cells Alamar Blue” value [1, 3] was 45.5 ± 7.7 percentage of controls and the “A549 Cells Alamar Blue” value [2] was 104.4 percentage of controls.
In the case of `CC(=O)Nc1ccc2c(c1)CCCC2=O` [compound 644, N1‐(5‐oxo‐5,6,7,8‐tetrahydronaphthalen‐2‐yl)acetamide], the “HeLa Cells Alamar Blue” value [1, 3] is reported as 99.2 ± 7.5 percentage of controls and the “A549 Cells Alamar Blue” value [2] is reported as 93.5 percentage of controls.
`O=C(O)c1ccc(-c2ccccc2)s1` [compound 649, 5‐phenylthiophene‐2‐carboxylic acid] was tested, and the viability at 500 µM [1, 4] was 122 ± 18.7% and the viability at 500 µM [2] was 141%.
With `O=C(O)c1cccc(-c2ccsc2)c1` [compound 650, 3‐thien‐3‐ylbenzoic acid] the viability at 500 µM [1, 4] was 114 ± 15.9% and the viability at 500 µM [2] was 165%.
For `NC(=O)c1ccccc1N1CCCCC1` [compound 651, 2‐piperidinobenzamide], the viability at 500 µM [1, 4] was 82.4 ± 5.4% and the viability at 500 µM [2] was 93.1%.
For `CNCc1cccc(-c2nccs2)c1` [compound 653, N‐methyl‐3‐(1,3‐thiazol‐2‐yl)benzylamine], the viability at 500 µM [1, 4] was 93.3 ± 2.7% and the viability at 500 µM [2] was 99.6%.
For `CNCc1ccc(-c2nccs2)cc1` [compound 654, N‐methyl‐4‐(1,3‐thiazol‐2‐yl)benzylamine], the viability at 500 µM [1, 4] was 66.2 ± 16.9% and the viability at 500 µM [2] was 114%.
`NCc1cccc(CN2CCCCC2)c1` [compound 655, 3‐piperidin‐1‐ylmethyl benzylamine] gave a viability at 500 µM [1, 4] of 73.7 ± 15.9% and a viability at 500 µM [2] of 126%.
Compound `CNCc1cccc(N2CCCCC2)c1` [compound 656, N‐methyl‐N‐(3‐piperidin‐1‐ylbenzyl)amine] has a viability at 500 µM [1, 4] of 27.4 ± 13.3% and a viability at 500 µM [2] of 104%.
With `CNCc1ccc(N2CCCCC2)cc1` [compound 657, N‐methyl‐N‐(4‐piperidin‐1‐ylbenzyl)amine] the viability at 500 µM [1, 4] was 40.9 ± 12% and the viability at 500 µM [2] was 77.4%.
`NCc1ccc(CN2CCCCC2)cc1` [compound 658, [4‐(piperidinomethyl)phenyl]methylamine] was tested, and the “HeLa Cells Alamar Blue” value [1, 3] was 22.8 ± 5.5 percentage of controls and the “A549 Cells Alamar Blue” value [2] was 123.5 percentage of controls.
